Measured values taken from patent US9938316B2, “Selective inhibitors of α2 isoform of Na,K-ATPase and use thereof for reduction of intra-ocular pressure and as cardiotonic agents” (priority 2013, dated 2018).
Values joined by “and” are separate entries in the source; they are usually repeats but may differ in a detail not shown here. Equal entries are not always repeated.

Columns and labels:
[1] = biological target: Na,K-ATPase α1β1 isoform complex (Homo sapiens, UniProt P05023); test: biochemical; conditions: Ki ± S.E. α1, Table 2; α1β1
Protocol: (§1) Methods for transformation, culture of P. pastoris clones, protein expression of Na,K-ATPase human isoforms (α1β1, α2β1, α3β1), membrane preparation, solubilization of membranes in DDM, and purification on BD-Talon beads have been described in detail (6-9, 11, 25). In initial experiments the three purified isoform complexes (0.3-0.5 mg/ml) were eluted from the BD-Talon beads in a solution containing Imidazole 170 mM, NaCl 100 mM; Tricine.HCl 20 mM pH 7.4; C12E8, 0.1 mg/ml; SOPS 0.07 mg/ml cholesterol 0.01 mg/ml, glycerol 25%. In later experiments the isoforms complexes were reconstituted with purified FXYD1 on the BD-Talon beads together as described in detail in (10, 11) prior to elution of α1β1FXYD1, α2β1FXYD1 and α3β1FXYD1 complexes. The proteins were stored at −80° C. Protein concentration was determined with BCA (B9643 Sigma).
(§2) Inhibition of Na,K-ATPase activity of the detergent-soluble α1β1, α2β1, and α3β1 complexes by CG's was determined as described (6) using either the αβ or αβFXYD1 complexes. […] The K0.5K was estimated by varying K concentration in a medium containing a fixed total K+choline chloride of 60 mM, and constant NaCl of 140 mM. Curves were fitted to the Hill function v=Vmax*[S]^n/([S]^n+K^n), where S is the K concentration, n is the Hill coefficient and K^n is K0.5K. For comparison of different curves the ratio v/Vmax for each curve was calculated and replotted. In experiments to assess inhibition of Na,K-ATPase activity by cardiac glycosides of the present invention, the percent inhibition VCG/V0 was calculated and Ki values were obtained by fitting the data to the function VCG/V0=Ki/([CG]+Ki)+ c. Inhibition was estimated in 3-8 separate experiments and average Ki values ±SEM were calculated. Significance of differences between Kiα1 and Kiα2 was calculated by the unpaired Student's t-test (p values). […] P values <0.05 were considered significant.

[2] = biological target: Na,K-ATPase α2β1 isoform complex (Homo sapiens, UniProt P50993); test: biochemical; type: biochemical; conditions: Ki ± S.E. α2, Table 2; α2β1
Protocol: as §1, §2

[3] = test system: Na,K-ATPase α2β1 isoform complex; test: biochemical; type: biochemical, human; conditions: for Selectivity ratio Ki α1/α2 ± S.E.: Kiα1β1/Kiα2β1
Protocol: as §1, §2

[4] = test system: intra-ocular pressure (IOP) of rabbits; test: 4-aminopyridine (4AP)-induced ocular hypertension in rabbits; type: in vivo, New Zealand white rabbits; conditions: for Time IOP is maintained at the low level: 1 mM; for Time IOP is maintained at the low level / Time IOP is held at the low level: single drop; for Order of relative effects on IOP: all at 0.1 mM, 1.5 hours after 4AP, average of three experiments
cornea of rabbits = test: Pachymetry: corneal thickness and local toxicity after topical cardiac glycosides; type: in vivo, New Zealand white rabbits; conditions: for Corneal thickness: 0.5 mM; for Corneal thickness (in words): over 4 hours, Digoxin 1 mM, DGlyN 0.5 mM, DMe 0.5 mM, ouabain 1 mM; for Corneal thickness (in words) / Redness or local irritation in conjunctiva or cornea: after 4AP; for Redness or local irritation in conjunctiva or cornea: topical
Protocol: Thus, in this study, no change in corneal thickness was detected (Table 3), indicative of lack of local toxic effects. […] Similar results were obtained with CG's applied after IB-MECA.
IOP (mm Hg) of rabbits was measured using a calibrated Pneumatonometer (Model 30, Reichert technologies, FIG. 1). A local anesthetic Oxybuprocaine HCl (0.4%, 25 μl) was applied to each cornea about a minute before IOP measurements. Two baseline IOP readings were taken before topical administration of the CG (or PBS as control) and after half an hour (Zero time). […] At zero time one drop of 4AP (40 mg/ml, 30 μl) or IB-MECA (1 μM, 30 μl) was administered to both eyes of each rabbit IOP measurements were made at different times as indicated in each experiment. In the experiments for which the IOP was elevated for several hours, 4AP was added every 1.5 hours or IB-MECA every 2 hours. […] Each experiment was repeated two or three times with similar results. In all cases the figures depict the average effect on IOP (i.e for four or six eyes) compared to control ±SEM. Where error bars are not seen in the figures, the errors are smaller than the symbols used. Significance of differences from the control was calculated by the unpaired Students t-test (p values), p values <0.05 were considered significant. Corneal thickness (μm) was measured using an ultrasonic pachymeter (Sonogage pachometer, Cleveland, USA), before and during the experiment with CG and 4AP treatments. The values represent averages of three independent measurements for each eye.

Structure (SMILES) | Ki [1] | Ki [2] | Selectivity ratio Ki α1/α2 ± S.E. [3] | Time IOP is maintained at the low level ([4]; 4AP every two hours) | Order of relative effects on IOP [4] | Wash-out time/rate compared with other cardiac glycosides ([4]; equal concentrations, 4AP every two hours) | Corneal thickness (cornea of rabbits; left eye, 0 h) | Corneal thickness (cornea of rabbits; left eye, 2 h) | Corneal thickness (cornea of rabbits; left eye, 4 h) | Corneal thickness (cornea of rabbits; right eye, 0 h) | Corneal thickness (cornea of rabbits; right eye, 2 h) | Corneal thickness (cornea of rabbits; right eye, 4 h) | Corneal thickness (in words) (cornea of rabbits) | Redness or local irritation in conjunctiva or cornea (cornea of rabbits) | Selectivity α1β1/α2/β1 ([3]; ratio of Ki, Table 6) | Time IOP is held at the low level ([4]; 0.2 mM, 4AP every two hours) | Time IOP is held at the low level ([4]; 0.5 mM, 4AP every two hours) | Time IOP is held at the low level ([4]; 2 mM, 4AP every two hours)
CC1CN(CC(N)=O)CCC(OC2C(O)CC(OC3C(O)CC(OC4CCC5(C)C(CCC6C5CC(O)C5(C)C(C7=CC(=O)OC7)CCC65O)C4)OC3C)OC2C)O1 (stereo not shown) [DGlyN] | 152 ± 5.5 nM | 20.4 ± 1 nM | 7.45±0.46 and 7.45 | 3.5 h | DGlyN≈DMe≈digoxigenin>digoxin>ouabain | slightly faster than for DMe | 498 microns | 462 microns | 455 microns | 496 microns | 476 microns | 454 microns | not significantly affected | neither redness nor local irritation were observed |  |  |  | 
CC1CN(C)CCC(OC2C(O)CC(OC3C(O)CC(OC4CCC5(C)C(CCC6C5CC(O)C5(C)C(C7=CC(=O)OC7)CCC65O)C4)OC3C)OC2C)O1 (stereo not shown) [DMe] | 101 ± 4.4 nM | 15.6 ± 2.3 nM | 6.47±0.71 | about 5.5 hours | DGlyN≈DMe≈digoxigenin>digoxin>ouabain |  | 465 microns | 440 microns | 453 microns | 507 microns | 476 microns | 498 microns | not significantly affected | neither redness nor local irritation were observed | 6.7 | 2.5 h | 4.5 h | 5.8 h
